Data from patent US20170164607A1, “METHODS OF EXTENDING THE SHELF LIFE OF SUGARCANE STEM SECTIONS AND COATED SUGARCANE STEM SECTIONS” (Syngenta Participations AG, priority 2014, published 2017).
Where two headings read alike, the source gives them in different places.

How the values were obtained:
sugarcane stem sections [1] = conditions: 300, 600 and 1200 μMol AgNO3; storage up to three weeks in air-tight jars at 16° C.; biochamber boxes or potted soil trays; FIGS. 2-7
Excerpt: Sugarcane stem sections (i.e., two varieties: CP 88-1762 and CP00-1101) having a diameter of approximately 25-30 mm and a length of approximately 50 mm were cut and coated (or left uncoated) as described in Example 1 using coating compositions having AgNO3 concentrations of 0, 300, 600 and 1200 μMol of AgNO3. The coated and control uncoated sugarcane stem sections were then planted as is or stored for a period of time up to three weeks in one gallon air-tight jars (i.e., about 20 coated sugarcane stem sections per jar) at 16° C. Following storage, the coated and control uncoated sugarcane stem sections were then germinated in either biochamber boxes or potted soil trays (i.e., 5 jars each) or both. All coated and control uncoated sugarcane stem sections were planted and evaluated as follows: germination rates were taken in the biochamber boxes at 3, 5, and 7 days after removal from the jars: germination rates were taken in the potted trays at 10, 12, and 14 days after removal from the jars.

sugarcane stem sections [2] = conditions: for Avg. Germ / Avg. Height: evaluated seven days after planting
Protocol: Sugarcane stem sections having a diameter of approximately […] and a length of approximately 50 mm were generated (e.g., cut) from sugarcane stalks. One set of cut sugarcane stem section were dipped into the coating compositions for a dwell time of about 60 seconds, and subsequently allowed to dry at room temperature (i.e., about 30° C. Another set of control sugarcane stem sections were not coated and remained at room temperature (i.e., about 30° C.) (i.e., identified below as “No AgNO3”). The coated and control uncoated sugarcane stem sections were then planted as is (i.e., these stem sections are identified below as “Day Zero”) or stored for a period of time up to three weeks in an air tight jar at room temperature (i.e., about 30° C.). Following storage, the coated and control uncoated sugarcane stem sections were then germinated in biochamber boxes. All coated and control uncoated sugarcane stem sections were germinated in a growth chamber and evaluated seven days after planting.

[3] = test system: sugarcane stem sections of CP88-762; conditions: 14 days after planting
Excerpt: Sugarcane stem sections of CP88-762 having a diameter of approximately 25-30 mm and a length of approximately 50 mm were cut and treated with a standard treatment slurry or a standard treatment slurry containing AgNO3 at a final concentration of 600 μMol of AgNO3 as described in Example 3. The AgNO3 treated and control (without AgNO3) sugarcane stem sections were then planted as is or stored for an extended period of time up to 42 days in storage containers as shown at FIG. 1 (i.e., storage containers that allow gas transfer between an interior and so exterior of the storage container) at a storage temperature of 10° C. Following storage, the AgNO3 treated and control sugarcane stem sections were planted in trays of potting soil and placed in a greenhouse as described in example 3. All sugarcane stem sections were evaluated for germination and shoot growth at 14 days after planting.

[4] = test system: sugarcane stem sections of CP88-1762
Excerpt: Sugarcane stem sections of CP88-1762 having a diameter of approximately 25-30 mm and a length or approximately 50 mm were coated with a standard treatment slurry (designated control treatment) or treated with the standard treatment slurry which also contained AgNO3 at a concentration of 600 μMol of AgNO3 (designated as AgNO3 treatment). The AgNO3 treated and control sugarcane stem sections were then planted as is or stored for a period of time up to three weeks in storage containers as shown in FIG. 1 (i.e., storage containers that allow gas transfer between an interior and an exterior of the storage container) at storage temperatures ranging from 10° C. to 22° C. Following storage, the AgNO3 treated and control sugarcane stem sections were planted in trays of potting soil and placed in a greenhouse. The trays were watered daily to maintain moisture and the greenhouse maintained at 26/20 C maximum/minimum temperatures with 15 hours light. Growth and germination of all AgNO3 treated and control sugarcane stem sections were evaluated at 7, 14, and 21 days after removal from storage containers.

[5] = 200 μMol AgNO3, 2 weeks storage in air tight jar at about 30° C.
[6] = 200 μMol AgNO3, 3 weeks storage in air tight jar at about 30° C.
[7] = 400 μMol AgNO3, 2 weeks storage in air tight jar at about 30° C.
[8] = 400 μMol AgNO3, 3 weeks storage in air tight jar at about 30° C.
[9] = 600 μMol AgNO3, 2 weeks storage in air tight jar at about 30° C.
[10] = 600 μMol AgNO3, 3 weeks storage in air tight jar at about 30° C.
[11] = after a weeks of storage in an air-tight jar (3 weeks rows of Table 1)
[12] = 600 μMol AgNO3 in standard treatment slurry, storage up to three weeks at 10° C. to 22° C. in gas-permeable containers, FIGS. 8-9

O=[N+]([O-])[O-].[Ag+] [AgNO3, silver nitrate]
germination rates compared to the standard slurry applied sugarcane stem sections (sugarcane stem sections [1]): improved germination rates | germination compared to the control "no AgNO3" sample (sugarcane stem sections [2]; 200 μmol concentration, 2 weeks of storage in an air-tight jar): increased germination | Avg. Germ (sugarcane stem sections [2]; [5]): 83.33% | Avg. Height (sugarcane stem sections [2]; [5]): 51.38 mm | Avg. Germ (sugarcane stem sections [2]; [6]): 52.50% | Avg. Height (sugarcane stem sections [2]; [6]): 42.91 mm | Avg. Germ (sugarcane stem sections [2]; [7]): 52.38% | Avg. Height (sugarcane stem sections [2]; [7]): 39.66 mm | Avg. Germ (sugarcane stem sections [2]; [8]): 45.00% | Avg. Height (sugarcane stem sections [2]; [8]): 30.53 mm | Avg. Germ (sugarcane stem sections [2]; [9]): 61.90% | Avg. Height (sugarcane stem sections [2]; [9]): 40.79 mm | Avg. Germ (sugarcane stem sections [2]; [10]): 87.50% | Avg. Height (sugarcane stem sections [2]; [10]): 55.19 mm | germination over the control "non-AgNO3" samples (sugarcane stem sections [2]; [11]): improved germination | plant height over the control "non-AgNO3" samples (sugarcane stem sections [2]; [11]): improved | germination rate ([3]; 600 μMol AgNO3, after 6 weeks storage at 10° C., FIG. 11): 68% | germination rates compared to control sugarcane stem sections ([3]; 600 μMol AgNO3 in standard treatment slurry, throughout the 42 days of storage at 10° C., FIG. 11): improved germination rates | plant vitality (as measured by plant height) compared to control sugarcane stem sections ([3]; 600 μMol AgNO3 in standard treatment slurry, throughout the 42 days of storage at 10° C., FIG. 12): improved | stem section germination ([4]; 600 μMol AgNO3, 7 through 21 days storage): significant enhancement | shoot lengths ([4]; 600 μMol AgNO3, all storage periods including day 0 planting): significant enhancement | vitality of sugarcane plants compared to plants from control stem sections ([4]; 600 μMol AgNO3, stored for 14 days at 22° C., 28 days after planting, FIG. 10): much more vitality | germination rates compared to control sugarcane stem sections [4, 12]: improved germination rates | plant vitality (as measured by plant height) compared to control sugarcane stem sections [4, 12]: improved
